Key:
BTK = target: T1, BTK (Homo sapiens, UniProt Q06187); experiment: Cell Degradation: BTK degradation in TMD-8 cells, HTRF assay; assay type: cell-based; details: 6 h treatment, IC50 (DC50) of BTK degradation
T1 construct: High control=Cell group with added DMSO and without compound, indicating microplate readings without BTK degradation; endogenous in cells; host or cells: TMD-8 cells
Protocol: TMD-8 cells are treated with compounds in 0.2% DMSO, dilution is done according to the following protocol: (1) make 500× stock solution in DMSO from 1 mM by 6-fold dilution, total 8 doses were included; (2) make 2× solution in cell culture medium by transferring 0.5 μl 500× stock solution into 125 μl medium; (3) 15 μl of 2× solution is added to cells and incubate for 6 h.
After 6 h treatment, add […] 4×lysis buffer to each well; seal the plate and incubate 30 min at room temperature on a plate shaker; Once the cells are lysed, 16 μL of cell lysate are transferred to a PE 384-well HTRF detection plate; 4 μL of pre-mixed HTRF antibodies are added to each well; Cover the plate with a plate sealer, spin 1000 rpm for 1 min, Incubate overnight at room temperature; Read on BMG PheraStar with HTRF protocol (337 nm-665 nm-620 nm).
The inhibition (degradation) percentage of the compound was calculated by the following equation: Inhibition percentage of Compound=100-100× (Signal-low control)/(High control-low control), wherein signal=each test compound group
Dmax is the maximum percentage of inhibition (degradation).
The IC50 (DC50) value of a compound can be obtained by fitting the following equation
Y=Bottom+(TOP-Bottom)/(1+((IC50/X)^hillslope))
(§1) Wherein, X and Y are known values, and IC50, Hillslope, Top and Bottom are the parameters obtained by fitting with software. Y is the inhibition percentage (calculated from the equation), X is the concentration of the compound; IC50 is the concentration of the compound when the 50% inhibition is reached. The smaller the IC50 value is, the stronger the inhibitory ability of the compound is. Vice versa, the higher the IC50 value is, the weaker the ability the inhibitory ability of the compound is; Hillslope represents the slope of the fitted curve, generally around 1 *; Bottom represents the minimum value of the curve obtained by data fitting, which is generally 0%±20%; Top represents the maximum value of the curve obtained by data fitting, which is generally 100%±20%. The experimental data were fitted by calculating and analyzing with Dotmatics data analysis software.

HEK-293 cells = experiment: HEK-293 Cytotoxicity Assay (CellTiter-Glo); assay type: cell-based; details: Homo sapiens, HEK293, 72 h incubation, CellTiter-Glo luminescence
Protocol: HEK-293 Cytotoxicity Assay
HEK-293 cells are treated with compounds diluted in 0.2% DMSO, dilution is done according to the following protocol: (1) make 500× stock solution in DMSO from 5 mM by 4-fold dilution, total 8 doses were included; (2) make 2× solution in cell culture medium by transferring 0.5 ul 500× stock solution into 125 ul medium; (3) 50 ul of 2× solution is added to cells and incubate for 72 h.
Add 25 μl of the CellTiter-Glo®Reagent [I (Promega)—Cat No. G7572] to each well in the 96-well plate. Mix contents for 2 minutes on an orbital shaker to induce cell lysis. Allow the plate to incubate at room temperature for 10 minutes to stabilize luminescent signal. Record luminescence on BMG PheraStar with luminescence protocol.
as §1, with “The IC50 value of a compound can be obtained by fitting the following equation. Y=Bottom+(TOP−Bottom)/(1+((IC50/X)^hillslope)) Wherein,” for “Wherein,”, “1*;” for “1 *;”

T1 sequence (Q06187 whole entry): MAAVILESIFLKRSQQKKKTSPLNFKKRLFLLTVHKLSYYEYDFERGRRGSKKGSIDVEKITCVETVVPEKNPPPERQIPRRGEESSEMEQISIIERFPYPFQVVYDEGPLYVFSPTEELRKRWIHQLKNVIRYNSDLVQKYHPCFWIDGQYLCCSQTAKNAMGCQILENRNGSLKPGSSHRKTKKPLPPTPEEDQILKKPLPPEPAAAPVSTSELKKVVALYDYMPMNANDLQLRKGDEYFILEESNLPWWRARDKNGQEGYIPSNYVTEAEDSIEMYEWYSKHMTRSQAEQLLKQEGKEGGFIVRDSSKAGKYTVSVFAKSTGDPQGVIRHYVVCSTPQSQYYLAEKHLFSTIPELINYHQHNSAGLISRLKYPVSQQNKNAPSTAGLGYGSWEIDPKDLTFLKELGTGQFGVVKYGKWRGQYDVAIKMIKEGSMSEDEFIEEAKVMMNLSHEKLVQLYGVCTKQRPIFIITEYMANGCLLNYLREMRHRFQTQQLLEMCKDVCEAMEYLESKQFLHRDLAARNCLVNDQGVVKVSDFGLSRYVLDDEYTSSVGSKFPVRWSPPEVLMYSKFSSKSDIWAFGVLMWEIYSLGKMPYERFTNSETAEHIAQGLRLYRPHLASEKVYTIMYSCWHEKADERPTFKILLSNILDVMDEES

In the case of Cc1cc(-c2ncnc3[nH]c(-c4ccc(N5CCN(CC6CCN(c7ccc(N8CCC(=O)NC8=O)cc7)CC6)CC5)cn4)cc23)c(F)cc1[C@@H](C)NC(=O)c1noc(C(C)(C)C)n1 [Example 134, (R)-5-(tert-butyl)-N-(1-(4-(6-(5-(4-((1-(4-(2,4-dioxotetrahydropyrimidin-1(2H)-yl)phenyl)piperidin-4-yl)methyl)piperazin-1-yl)pyridin-2-yl)-7H-pyrrolo[2,3-d]pyrimidin-4-yl)-5-fluoro-2-methylphenyl)ethyl)-1,2,4-oxadiazole-3-carboxamide], the DC50 (BTK) is reported as 0.54 nM and the IC50 (HEK-293 cells) is reported as > 10000 nM.

With Cc1cc(-c2ncnc3[nH]c(-c4ccc(N5CCN(CC6CCN(c7ccc(N8CC(=O)NC8=O)cc7)CC6)CC5)cn4)cc23)ccc1[C@@H](C)NC(=O)c1nc(C(C)(C)C)no1 [Example 184, (R)-3-(tert-butyl)-N-(1-(4-(6-(5-(4-((1-(4-(2,4-dioxoimidazolidin-1-yl)phenyl)piperidin-4-yl)methyl)piperazin-1-yl)pyridin-2-yl)-7H-pyrrolo[2,3-d]pyrimidin-4-yl)-2-methylphenyl)ethyl)-1,2,4-oxadiazole-5-carboxamide] the DC50 (BTK) was 2.7 nM and the IC50 (HEK-293 cells) was > 10000 nM.

C[C@@H](NC(=O)c1nc(C(C)(C)C)no1)c1ccc(-c2ncnc3[nH]c(-c4ccc(N5CCN(CC6CCN(c7ccc(N8CCC(=O)NC8=O)cc7)CC6)CC5)cc4)cc23)cc1CO [Example 74] was tested, and the DC50 (BTK) was 0.4 nM and the IC50 (HEK-293 cells) was > 10000 nM.

With C[C@@H](NC(=O)c1nc(C(C)(C)C)no1)c1ccc(-c2ncnc3[nH]c(-c4ccc(N5CCN(CC6CCN(c7ccc(N8CCC(=O)NC8=O)cc7)CC6)CC5)cn4)cc23)cc1CO [Example 170, (R)-3-(tert-butyl)-N-(1-(4-(6-(5-(4-((1-(4-(2,4-dioxotetrahydropyrimidin-1(2H)-yl)phenyl)piperidin-4-yl)methyl)piperazin-1-yl)pyridin-2-yl)-7H-pyrrolo[2,3-d]pyrimidin-4-yl)-2-(hydroxymethyl)phenyl)ethyl)-1,2,4-oxadiazole-5-carboxamide] the DC50 (BTK) was 0.17 nM and the IC50 (HEK-293 cells) was > 10000 nM.

Cc1cc(-c2ncnc3[nH]c(-c4c(C)nn(C5CCN(CC6CCN(c7ccc(N8CCC(=O)NC8=O)cc7)CC6)C5)c4C)cc23)ccc1[C@@H](C)NC(=O)c1nc(C(C)(C)C)no1 (stereo partly drawn) [Example 163, 3-(tert-butyl)-N-((1R)-1-(4-(6-(1-(1-((1-(4-(2,4-dioxotetrahydropyrimidin-1(2H)-yl)phenyl)piperidin-4-yl)methyl)pyrrolidin-3-yl)-3,5-dimethyl-1H-pyrazol-4-yl)-7H-pyrrolo[2,3-d]pyrimidin-4-yl)-2-methylphenyl)ethyl)-1,2,4-oxadiazole-5-carboxamide] was tested, and the DC50 (BTK) was 1.32 nM and the IC50 (HEK-293 cells) was > 10000 nM.

Cc1c([C@@H](C)NC(=O)c2noc(C(C)(C)C)n2)ccc(-c2ncnc3[nH]c(-c4ccc(N5CCN(CC6CCN(c7ccc(N8CCC(=O)NC8=O)cc7)CC6)CC5)cc4)cc23)c1F [Example 115, (R)-5-(tert-butyl)-N-(1-(4-(6-(4-(4-((1-(4-(2,4-dioxotetrahydropyrimidin-1(2H)-yl)phenyl)piperidin-4-yl)methyl)piperazin-1-yl)phenyl)-7H-pyrrolo[2,3-d]pyrimidin-4-yl)-3-fluoro-2-methylphenyl)ethyl)-1,2,4-oxadiazole-3-carboxamide] was tested, and the DC50 (BTK) was 1.83 nM and the IC50 (HEK-293 cells) was > 10000 nM.

With Cc1cc(-c2ncnc3[nH]c(-c4ccc(N5CCN([C@H]6C[C@@H](c7ccc(O[C@H]8CCC(=O)NC8=O)cc7)C6)CC5)nc4)cc23)ccc1[C@@H](C)NC(=O)c1nc(C(C)(C)C)no1 [Example 191, 3-(tert-butyl)-N-((R)-1-(4-(6-(6-(4-((1R,3s)-3-(4-(((S)-2,6-dioxopiperidin-3-yl)oxy)phenyl)cyclobutyl)piperazin-1-yl)pyridin-3-yl)-7H-pyrrolo[2,3-d]pyrimidin-4-yl)-2-methylphenyl)ethyl)-1,2,4-oxadiazole-5-carboxamide] the DC50 (BTK) was 1.59 nM and the IC50 (HEK-293 cells) was > 10000 nM.

Source: patent publication US20230167118A1, “DEGRADATION OF BRUTON'S TYROSINE KINASE (BTK) BY CONJUGATION OF BTK INIDBITORS WITH E3 LIGASE LIGAND AND METHODS OF USE” (BEIGENE, LTD., priority 2020, published 2023)
